From patent US20250011316A1, “PEROXIREDOXIN 3 INHIBITORS AND METHODS OF USE FOR TREATING CANCER” (Wake Forest University Health Sciences, priority 2022, published 2025)
Values after ≈ are worked out from the molar mass of the structure shown. Where a name gives a salt, the structure may show the parent alone.

Tests used:
PRX3 = molecular target: T1, PRX3 (Homo sapiens, UniProt P30048); assay: Crosslinking study: PRX3 western blot of H-MESO cell lysates; type: cell-based; conditions: H-MESO cells treated 24 hours; TS at 2.5 or 5 μM; reducing SDS-PAGE, PRX3 western blot (FIG. 3)
T1 construct: endogenous in cells; host or cells: H-MESO malignant mesothelioma cells
T1 sequence (P30048 62-256): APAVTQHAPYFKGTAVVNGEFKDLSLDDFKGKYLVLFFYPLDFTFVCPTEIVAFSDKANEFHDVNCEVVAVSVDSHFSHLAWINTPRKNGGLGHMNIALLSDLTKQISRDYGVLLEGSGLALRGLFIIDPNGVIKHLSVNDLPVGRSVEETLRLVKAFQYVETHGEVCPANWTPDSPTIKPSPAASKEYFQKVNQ
Description: Malignant Mesothelioma (MM) cells (H-MESO cell line) were plated into 6-well plates in complete tissue culture media. Cells were allowed to adhere for 24 hours before being treated with indicated concentrations of thiostrepton (TS), (1) or (5) (DMSO Stocks) for 24 hours. Cell lysates were generated using standard RIPA buffer, protein concentrations were determined using a Bradford Assay and 20 μg of total protein per sample were separated by reducing SDS-Polyacrylamide Gel Electrophoresis. Proteins were transferred to a PVDF membrane, blocked with 5% Bovine Serum Albumin (BSA) for 1 hour and incubated with PRX3 primary antibody overnight at 4° C. in IX Tris Buffered Saline with Tween (TBST). Membranes were washed 3X with IX TBST and incubated with horseradish peroxidase conjugated (HRP) secondary antibody for 1 hour at room temperature. Membranes were washed 3x in IX TBST and HRP signal was developed using Enhanced Chemiluminescence and visualized on a GE digital imager.

HMESO mesothelioma cells = assay: Cell viability study (crystal violet, 48 h); type: cell-based; conditions: Homo sapiens, 48 h incubation, read-out: IC50 (Concentration of drug required to kill 50% of cells)
Description: Cell Lines were plated in 96-well plates (Corning, Kennebunk, ME, USA) at a density of 2500 cells per well. The following day, cells were treated with test compounds diluted in complete media followed by incubation for 48 h. Post-incubation cells were washed with PBS (Corning Cellgro, Manassas, VA, USA), fixed with 3.0% formaldehyde (Fisher BioReagents, Fair Lawn, NJ, USA) in PBS, and stained for 30 min with 0.1% crystal violet (Acros Organics, Fair Lawn, NJ, USA) in water. Crystal violet stain was removed, and plates were washed with FEO and allowed to dry. To quantify cell viability, plates were imaged using the Lionheart Plate reader (BioTek Instruments, Winooski, VT, USA) and/or analyzed by absorbance at 540 nm (crystal violet dye dissolved in 100% methanol) using the Synergy HTX plate reader (BioTek Instruments, Winooski, VT, USA). To determine the effective cytotoxic concentration (ICso) of test compounds, the data were plotted using a 4-parameter non-linear regression model using GraphPad Prism7 software (GraphPad Software, San Diego, CA, USA).
Cell viability assay data in HMESO mesothelioma cells treated with compounds (1)—HCl or (5) HCl are summarized in the below Table 2. ICso (Concentration of drug required to kill 50% f cells) is shown in […] concentration

[1] = Behaviour of compounds in DMSO and complete tissue culture media (HMESO cell viability assay, FIG. 1); type: physicochemical; conditions: from DMSO solution
Description: FIG. 1: Cell viability assay data in Malignant Mesothelioma (MM) cells (HMESO cell line) treated with compound (1)—HCl or (5)—HCl N=2 technical and 2 biological replicates conducted by 2 different lab technicians. All compounds went into solution in 100% DMSO. (5)—HCl precipitated at concentrations of ˜20-80 μM when added to complete tissue culture media.

[2] = tested on: human SK—OV-3 ovarian cancer cells; assay: Cellular Activity Assay (cytotoxicity, crystal violet); type: cell-based; conditions: Homo sapiens; SK—OV-3 cells, treated for 48 hr, 0.1-100 μM, crystal violet absorbance at 540 nm
In short: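 SK-OV-3 cells plated, allowed 24 h recovery, then treated 48 hr with compound at 0.1-100 μM. Live cells were fixed (3.0% formaldehyde), stained with 0.1% crystal violet and read at 540 nm. EC50 was fitted after normalizing to matched-DMSO controls.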

purified human PRX3 = molecular target: T2, purified human PRX3 (Homo sapiens, UniProt P30048); assay: Biochemical PRX3 Inhibition Assay (non-reducible crosslink by SDS PAGE + single adduct by MALDI-TOF MS); conditions: 100 μM PRX3 with TRX2/thioredoxin reductase/NADPH system and hydrogen peroxide, 1-2 hr at 37° C.
T2 construct: made in house
T2 sequence (P30048 62-256): T1 sequence (P30048 62-256)
In short: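 Purified human PRX3 (100 µM) cycled with TRX2, thioredoxin reductase, NADPH regenerating system and H2O2, incubated with compound 1–2 h at 37 °C. Non-reducible crosslink quantified by densitometry of SDS-PAGE (~46 vs ~23 kDa) after DTT; single-adduct fraction from MALDI-TOF MS peak intensities, background-corrected against DMSO.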

Solubility Assay (HPLC) = type: physicochemical; conditions: HEPES/NaCl buffer, aqueous with cosolvent or surfactant or cyclodextrin, kinetic from dmso stock; 20 mM HEPES, 100 mM NaCl, pH 7.5, 18-24 hours at ambient temperature; read-out: Solubility
In short: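 Compound from 20 mM DMSO stock added to 20 mM HEPES, 100 mM NaCl, pH 7.5, rotated 18-24 h at ambient temperature, then centrifuged 10 min at 20,000×g to remove solids. Supernatant diluted in DMSO and quantified by HPLC peak area against the closest of 200 μM and 20 μM standards, corrected for dilution.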

[3] = tested on: Enterococcus hirae (ATCC #10541); assay: Antimicrobial Activity Assay (MIC / growth inhibition); type: cell-based; conditions: for MIC: ATCC10541, Enterococcus hirae, analogs tested at 20 μM final concentration
Description: The overnight growth was then diluted into growth media to make a single solution of E. hirae with a final optical density at 600 nm=0.02 AU. A 20 mM stock solution of Thiostrepton in DMSO was made and used to make multiple dilutions of TS in DMSO. Each TS dilution (0.1 mL) was then added to a test tube containing 10 mL of the diluted E. hirae and grown at 37° C. overnight while shaking at 180 rpm. The next morning, each tube was visually inspected to determine if the cells grew. Final concentrations tested were 0.120, 0.090, 0.075, 0.060, 0.045, 0.030, and 0.015 μM TS. […] Three replicates were made on three separate days (n=9). […] For TS analogs, the dilute E. hirae was treated with 20 μM final concentration of each analog (three replicates each). […] DMSO was used as a positive control (complete cell growth) and 20 μM thiostrepton was used as a negative control.

578 cancer cells lines = conditions: of 578 cancer cells lines tested; Corsello et al. Nature Cancer 2020; cited from earlier work
FIG. 5 (CON'T) [4] = assay: FIG. 5 (CON'T)
Description: (§1) Table printed on a drawing sheet, FIG. 5 (CON'T)
(§2) The patent's description of the figure: FIG. 5 is a table summarizing the results of Examples 42-44 for various compounds described herein. NT indicates “not tested.” For EC50 values, “A” represents an EC50 less than or equal to 5.0 μM, “B” represents an EC50 from 5.1 μM to 10.0 μM, “C” represents an EC50 from 10.1 μM to 50.0 μM, and “D” represents an EC50 greater than 50.0 μM.
First reader's note: Continued from the sheet before: the first body row is the end of a record begun there; EC50 is given as classes A-D whose legend is not printed on this sheet.

FIG. 5 (CON’T) [5] = assay: FIG. 5 (CON’T)
Description: (§3) Table printed on a drawing sheet, FIG. 5 (CON’T)
as §2

FIG. 5 (CON’T) [6] = assay: FIG. 5 (CON’T); remark: listed apart in the source
Description: as §3, §2
First reader's note: Continued from an earlier sheet of FIG. 5; the EC50 classes A-D and NT are not explained on this sheet but only in the patent's figure description.

FIG. 5 (CON'T) [7] = assay: FIG. 5 (CON'T); remark: listed apart in the source
Description: as §1, §2
First reader's note: Continued from an earlier sheet of FIG. 5; EC50 is given as classes A-C, and neither these classes nor NT are explained on this sheet.

[8] = E. hirae, overnight at 37° C., MIC determination, n=9

With C=C(NC(=O)C(=C)NC(=O)c1csc(-c2ccc(N)cc2)n1)C(N)=O [(1), N-(3-((3-amino-3-oxoprop-1-en-2-yl)amino)-3-oxoprop-1-en-2-yl)-2-(4-aminophenyl)thiazole-4-carboxamide] the “Covalent PRX3 crosslinking (PRX3-X-PRX3)” value (PRX3) was “No PRX3 —X —PRX3 crosslinking was observed”.
For C=C(NC(=O)C(=C)NC(=O)c1csc(-c2ccc(N)cc2)n1)C(N)=O [(1)-HC1, N-(3-((3-amino-3-oxoprop-1-en-2-yl)amino)-3-oxoprop-1-en-2-yl)-2-(4-aminophenyl)thiazole-4-carboxamide hydrochloride], the IC50 (HMESO mesothelioma cells) was 748 µM.
For C=C(NC(=O)c1csc(-c2ccc(N)cc2)n1)C(=O)NC(=C)C(=O)OC [(5), Methyl 2-(2-(2-(4-aminophenyl)thiazole-4-carboxamido)acrylamido)acrylate], the “Covalent PRX3 crosslinking (PRX3-X-PRX3)” value (PRX3) was “Similar, yet less robust”.
With C=C(NC(=O)c1csc(-c2ccc(N)cc2)n1)C(=O)NC(=C)C(=O)OC [(5)—HCl, Methyl 2-(2-(2-(4-aminophenyl)thiazole-4-carboxamido)acrylamido)acrylate hydrochloride] the “concentrations at which compound precipitated when added to complete tissue culture media” value [1] was 20 to 80 µM and the IC50 (HMESO mesothelioma cells) was 1.93 µM.
For C=C(NC(=O)c1csc(N2CCC[C@@H](NC(=O)OCCOC)C2)n1)C(=O)NC(=C)C(=O)OC [Compound 31, Methyl (R)-2-(2-(2-(3-(((2-methoxyethoxy)carbonyl)amino)piperidin-1-yl)thiazole-4-carboxamido)acrylamido)acrylate], the EC50 [2] was 25 to 100 µM, the “PRX3 Inhibition (Crosslink + Mono-adduct)” value (“PRX3 Inhibition” below) (purified human PRX3) was “+ (5-50%)” and the solubility (Solubility Assay (HPLC)) was over 1000 µM. For the same compound, the MIC [3] was over 20 µM.
In the case of C=C(NC(=O)c1csc(N2CCC(COC(=O)NCCCOC)CC2)n1)C(=O)NC(=C)C(=O)OC [Compound 32, Methyl 2-(2-(2-(4-((((3-methoxypropyl)carbamoyl)oxy)methyl)piperidin-1-yl)thiazole-4-carboxamido)acrylamido)acrylate], the EC50 [2] is reported as 25 to 100 µM, the “PRX3 Inhibition” value (purified human PRX3) is reported as “++ (50-90%)” and the solubility (Solubility Assay (HPLC)) is reported as 100 to 1000 µM (≈ 51 to 510 µg/mL). For the same compound, the MIC [3] was over 20 µM.
For C=C(NC(=O)c1csc(N2CCC(NC(=O)OCCOC)CC2)n1)C(=O)NC(=C)C(=O)OC [Compound 33, Methyl 2-(2-(2-(4-(((2-methoxyethoxy)carbonyl)amino)piperidin-1-yl)thiazole-4-carboxamido)acrylamido)acrylate], the EC50 [2] was 25 to 100 µM, the “PRX3 Inhibition” value (purified human PRX3) was “+++ (>90%)” and the solubility (Solubility Assay (HPLC)) was over 1000 µM. For the same compound, the MIC [3] was over 20 µM.
With C=C(NC(=O)c1csc(N2CCC(NC(=O)COCCOC)CC2)n1)C(=O)NC(=C)C(=O)OC [Compound 34, Methyl 2-(2-(2-(4-(2-(2-methoxyethoxy)acetamido)piperidin-1-yl)thiazole-4-carboxamido)acrylamido)acrylate] the EC50 [2] was 1 to 10 µM, the “PRX3 Inhibition” value (purified human PRX3) was “+++ (>90%)” and the solubility (Solubility Assay (HPLC)) was over 1000 µM. For the same compound, the MIC [3] was over 20 µM.
For C=C(NC(=O)C(=C)NC(=O)c1csc(C2=N[C@@H]3c4csc(n4)[C@H]4NC(=O)c5csc(n5)[C@H]([C@](C)(O)[C@@H](C)O)NC(=O)[C@H]5CSC(=N5)/C(=C/C)NC(=O)[C@H]([C@@H](C)O)NC(=O)c5csc(n5)[C@]3(CC2)NC(=O)[C@H](C)NC(=O)C(=C)NC(=O)[C@H](C)NC(=O)[C@H]([C@@H](C)CC)N[C@@H]2C=Cc3c([C@H](C)O)cc(nc3[C@H]2O)C(=O)O[C@@H]4C)n1)C(N)=O [TS, Thiostrepton, reference compound], the “Covalent PRX3 crosslinking (PRX3-X-PRX3)” value (PRX3) was “resulted in covalent PRX3 crosslinking”, the “TS concentrations at which complete growth was observed” value [3, 8] was under 0.030 µM and the “TS concentrations at which no growth was observed” value [3, 8] was over 0.045 µM. It also gave an IC50 (HMESO mesothelioma cells) of 1.01 µM.
In the case of C=C(NC(=O)C(=C)NC(=O)c1csc(C2=N[C@@H]3c4csc(n4)[C@H]4NC(=O)c5csc(n5)[C@H]([C@](C)(O)[C@@H](C)O)NC(=O)[C@H]5CSC(=N5)/C(=C/C)NC(=O)[C@H]([C@@H](C)O)NC(=O)c5csc(n5)[C@]3(CC2)NC(=O)[C@H](C)NC(=O)C(=C)NC(=O)[C@H](C)NC(=O)[C@H]([C@@H](C)CC)N[C@@H]2C=Cc3c([C@H](C)O)cc(nc3[C@H]2O)C(=O)O[C@@H]4C)n1)C(N)=O [Thiostrepton, thiostrepton], the “number of tumor cells lines in which meaningful efficacy was shown” value (578 cancer cells lines) is given as 403.
In the case of C=C(NC(=O)c1csc(N2C[C@@H](C)N(C(=O)OC(C)(C)C)[C@@H](C)C2)n1)C(=O)NC(=C)C(=O)OC [compound 56], the “Time into solution from powder?” value (FIG. 5 (CON'T) [4]) is reported as 1 to 2 min.
In the case of C=C(NC(=O)c1csc(N2CCC(C(=O)NCCCOC)CC2)n1)C(=O)NC(=C)C(=O)OC [compound 61], the “Time into solution from powder?” value (FIG. 5 (CON’T) [5]) is reported as 1 to 2 min.
In the case of C=C(NC(=O)c1csc(N2CCN(CCCOC)C(=O)C2)n1)C(=O)NC(=C)C(=O)OC [compound 63], the “Time into solution from powder?” value (FIG. 5 (CON’T) [6]) is reported as 1 to 2 min.
In the case of C=C(NC(=O)c1ccc(-c2ccc(NC(=O)OC(C)(C)C)cc2)cc1)C(=O)NC(=C)C(=O)OC [compound 69], the “Time into solution from powder?” value (FIG. 5 (CON'T) [7]) is reported as 1 to 2 min.
